Source: PubChem BioAssay (NCI)
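Cultured in 96-well plates, cells were exposed to test compound for 48 hours across five concentrations. Here, GI50 denotes the concentration required for 50% inhibition of growth. The concentration for full growth arrest is given as TGI.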

Experiments:
Test in all cases: growth of human tumour cells (NCI), 48 h
[1] = system: HCC-2998 colon
[2] = system: MALME-3M melanoma
[3] = system: NCI/ADR-RES ovarian
[4] = system: OVCAR-5 ovarian
[5] = system: OVCAR-8 ovarian
[6] = system: SF-268 CNS
[7] = system: SK-MEL-28 melanoma
[8] = system: SNB-19 CNS

SMILES | GI50 [1] [µM] | TGI [1] [µM] | GI50 [2] [µM] | TGI [2] [µM] | GI50 [3] [µM] | TGI [3] [µM] | GI50 [4] [µM] | TGI [4] [µM] | GI50 [5] [µM] | TGI [5] [µM] | GI50 [6] [µM] | TGI [6] [µM] | GI50 [7] [µM] | TGI [7] [µM] | GI50 [8] [µM] | TGI [8] [µM]
COc1ccc(/C=C/C(=O)c2c(O)ccc3c(C)c(C(=O)O)oc23)cc1 | 36.7 | > 100 | 94.6 | > 100 | 61.9 | > 100 | > 100 | > 100 | 61.3 | > 100 | 42.3 | > 100 | > 100 | > 100 | 64.9 | > 100
O=C(Cn1c(C(=O)c2ccc(Cl)cc2)nc(-c2ccc(Cl)cc2)c1-c1ccc(Cl)cc1)c1ccccc1 | > 100 | > 100 | > 100 | > 100 | > 100 | > 100 | > 100 | > 100 | > 100 | > 100 | > 100 | > 100 | > 100 | > 100 | > 100 | > 100
N/C=N/S(=O)(=O)c1ccc(NC(=O)COC(=O)c2cccc3c(=O)c4ccccc4[nH]c23)cc1 | – | – | – | > 100 | – | – | – | – | – | > 100 | – | – | – | > 100 | – | > 100
C/C(CCC(=O)O)=N/Nc1ccc([N+](=O)[O-])cc1 | 5.94 | > 100 | 65 | > 100 | 4.44 | > 100 | > 100 | > 100 | 42.6 | > 100 | 29 | > 100 | > 100 | > 100 | > 100 | > 100
O=C(CCCn1c2c(sc3ccccc32)c(=O)n2nnc(-c3ccccc3)c12)NCCc1cnc[nH]1 | 1.26 | 3.41 | 1.88 | 3.58 | 0.972 | > 24.4 | 0.0751 | 1.51 | – | 2.99 | 1.8 | 4.35 | 1.01 | 2.36 | 2.97 | 14.7
C[C@@H](N)COc1ccc(-c2cnc3ccc(N[C@H](C)c4cccc(F)c4)nn23)cc1 | 2.01 | 4.97 | 1.33 | 2.62 | 2.43 | 7.12 | 1.38 | 4.54 | 1.84 | 4.3 | 1.85 | 6.38 | 1.64 | 3.07 | 3 | 11.6
Oc1c(C(Nc2ccccn2)c2cccc(Oc3ccccc3)c2)ccc2cccnc12 (stereo not given) | 1.84 | 32.6 | 0.806 | 19.7 | 0.416 | > 100 | 0.515 | 12.6 | 0.424 | 19.7 | 0.518 | 14.3 | 0.63 | 17.8 | 0.366 | 14.7
CCn1c(-c2nonc2N)nc2c(C#CC(C)(C)O)ncc(OC3CCNCC3)c21 | 7.08 | > 25 | > 25 | > 25 | > 25 | > 25 | > 25 | > 25 | 12.9 | > 25 | 16.6 | > 25 | 14.9 | > 25 | 7.83 | > 25
